Assay results taken from patent US20240158446A1, “CYCLIC COMPOUND HAVING SELECTIVE INHIBITORY ACTION ON KRAS OVER HRAS AND NRAS” (CHUGAI SEIYAKU KABUSHIKI KAISHA, priority 2021, published 2024).
Where two headings read alike, the source gives them in different places. *1 amine or outer side, *2 acyl side, *3 side chain or, on linkers, in order; H or OH if unused. Where a SMILES comes first, the peptide text is derived from it. Bridges are numbered along the chain shown (N, C = ends). [ ]: non-standard residue; d: D form. The star is where a group is joined. X25 = O=C([C@H](Cc1ccc(C(F)(F)F)cc1)N(CCC(F)(F)F)[*:1])[*:2]; hPhe(3-Cl-4-CF3) = N[C@@H](CCc1ccc(C(F)(F)F)c(Cl)c1)C(=O)O; X27 = O=C([C@H](Cc1ccc(C(F)(F)F)cc1)N(CC1CC1)[*:1])[*:2]; NMeGly(cPent) = CN[C@H](C(=O)O)C1CCCC1; NMeD = CN[C@@H](CC(=O)O)C(=O)O; NMeL = CN[C@@H](CC(C)C)C(=O)O; Morpholide = C1CN(*)CCO1; NMeA = CN[C@@H](C)C(=O)O; Ac5c = NC1(C(=O)O)CCCC1; Aze = O=C(O)[C@@H]1CCN1; Sar = CNCC(=O)O

Assays:
[1] = molecular target: GDP-bound HRAS wild-type protein (Homo sapiens, UniProt P01112); assay: Binding to HRAS by surface plasmon resonance (SPR), Single Cycle Kinetics; details: SPR, GDP-bound HRAS wild-type protein vs GDP-bound KRAS wild-type protein
GDP-bound HRAS wild-type protein, sequence (P01112 whole entry): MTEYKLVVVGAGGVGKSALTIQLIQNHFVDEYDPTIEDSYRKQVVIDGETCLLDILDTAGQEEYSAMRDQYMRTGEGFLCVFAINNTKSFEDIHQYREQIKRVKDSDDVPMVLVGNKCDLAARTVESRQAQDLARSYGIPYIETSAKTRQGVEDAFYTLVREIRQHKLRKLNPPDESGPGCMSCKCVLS

[2] = molecular target: GDP-bound KRAS wild-type protein (Homo sapiens, UniProt P01116); assay: Binding to KRAS by surface plasmon resonance (SPR), Single Cycle Kinetics; details: GDP-bound KRAS wild-type protein, read-out: KRAS KD
GDP-bound KRAS wild-type protein, sequence (P01116 whole entry): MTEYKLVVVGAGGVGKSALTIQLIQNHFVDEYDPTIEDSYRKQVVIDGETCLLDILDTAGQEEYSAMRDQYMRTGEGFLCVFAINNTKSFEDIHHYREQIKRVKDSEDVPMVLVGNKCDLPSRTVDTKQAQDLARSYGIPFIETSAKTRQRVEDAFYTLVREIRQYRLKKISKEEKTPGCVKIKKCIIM

[3] = molecular target: GDP-bound NRAS wild-type protein (Homo sapiens, UniProt P01111); assay: Binding to NRAS by surface plasmon resonance (SPR), Single Cycle Kinetics; details: SPR, GDP-bound NRAS wild-type protein vs GDP-bound KRAS wild-type protein
GDP-bound NRAS wild-type protein, sequence (P01111 whole entry): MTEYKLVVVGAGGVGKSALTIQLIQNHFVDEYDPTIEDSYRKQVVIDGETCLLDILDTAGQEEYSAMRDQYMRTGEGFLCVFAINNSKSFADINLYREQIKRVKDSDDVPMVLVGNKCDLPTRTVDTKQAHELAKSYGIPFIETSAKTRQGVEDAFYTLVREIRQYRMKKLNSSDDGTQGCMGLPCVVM

[4] = SPR Single Cycle Kinetics, 1:1 binding model
[5] = SPR, Single Cycle Kinetics, 1:1 binding model

Row | Compound | Kd [2, 4] [nM] | HRAS/KRAS (ratio of KD value for HRAS to KD value for KRAS) [1] | NRAS/KRAS (ratio of KD value for NRAS to KD value for KRAS) [3] | other results
1 | CCO[C@@H]1C[C@H]2C(=O)NC3(CCC3)C(=O)N(C)[C@@H](C3CCCC3)C(=O)N(C)[C@H](C(=O)N(C)C)CC(=O)N(C)[C@@H](CC)C(=O)N[C@@H]([C@@H](C)CC)C(=O)N(C)CC(=O)N(C)[C@H]3CCCCCN(C3=O)[C@@H](Cc3ccc(F)cc3OC)C(=O)N(C)CC(=O)N[C@@H](CCc3cc(F)c(C(F)(F)F)c(F)c3)C(=O)N2C1 [PP0914] | – | B (a compound having 3 or more and less than 10 is denoted as B) | B (a compound having 3 or more and less than 10 is denoted as B) | Kd ([2]; SPR, Single Cycle Kinetics): 0.43 nM
2 | CCO[C@@H]1C[C@H]2C(=O)NC3(CCC3)C(=O)N(C)[C@@H](C3CCCC3)C(=O)N(C)[C@H](C(=O)N3CCC3)CC(=O)N(C)[C@@H](CC)C(=O)N[C@@H]([C@@H](C)CC)C(=O)N(C)CC(=O)N(C)[C@H]3C/C=C\CCN(C3=O)[C@@H](Cc3ccc(C(F)(F)F)cc3)C(=O)N(C)CC(=O)N[C@@H](CCc3cc(F)c(C(F)(F)F)c(F)c3)C(=O)N2C1 [PP1091, (2S,8S,12R,14S,20S,23S,27S,30S,36S,38Z)-23-(azetidine-1-carbonyl)-20-cyclopentyl-8-[2-[3,5-difluoro-4-(trifluoromethyl)phenyl]ethyl]-12-ethoxy-27-ethyl-4,19,22,26,32,35-hexamethyl-30-[(1S)-1-methylpropyl]-2-[[4-(trifluoromethyl)phenyl]methyl]spiro[1,4,7,10,16,19,22,26,29,32,35-undecazatricyclo[34.5.1.0^10,14]dotetracont-38-ene-17,1′-cyclobutane]-3,6,9,15,18,21,25,28,31,34,42-undecone] | – | B (a compound having 3 or more and less than 10 is denoted as B) | A (a compound having 10 or more and less than 20 is denoted as A) | Kd ([2]; SPR, Single Cycle Kinetics): 0.11 nM
3 | CCO[C@@H]1C[C@H]2C(=O)NC3(CCC3)C(=O)N(C)[C@@H](C3CCCC3)C(=O)N(C)C(C(C)C)CC(=O)N(C)[C@@H](CC)C(=O)N[C@@H]([C@@H](C)CC)C(=O)N(C)CC(=O)N(C)[C@H]3C/C=C\CCN(C3=O)[C@@H](Cc3ccc(C(F)(F)F)cc3)C(=O)N(C)CC(=O)N[C@@H](CCc3cc(F)c(C(F)(F)F)c(F)c3)C(=O)N2C1 (stereo partly drawn) [PP1590] | – | – | – | HRAS/KRAS (ratio of KD value for HRAS to KD value for KRAS) ([1]; KD ratio class): B (a compound having 3 or more and less than 10 is denoted as B); Kd [2, 5]: 0.29 nM; NRAS/KRAS (ratio of KD value for NRAS to KD value for KRAS) ([3]; KD ratio class): A (a compound having 10 or more and less than 20 is denoted as A)
4 | CCO[C@@H]1C[C@H]2C(=O)NC3(CCC3)C(=O)N(C)[C@@H](C3CCCC3)C(=O)N(C)[C@H](C)CC(=O)N(C)[C@@H](CC(C)C)C(=O)N[C@@H]([C@@H](C)CC)C(=O)N(C)CC(=O)N(C)[C@H]3C/C=C\CCN(C3=O)[C@@H](Cc3ccc(C)cc3)C(=O)N(C)CC(=O)N[C@@H](CCc3cc(F)c(C(F)(F)F)c(F)c3)C(=O)N2C1 [PP1417] | – | – | – | HRAS/KRAS (ratio of KD value for HRAS to KD value for KRAS) ([1]; KD ratio class): B (a compound having 3 or more and less than 10 is denoted as B); Kd [2, 5]: 0.26 nM; NRAS/KRAS (ratio of KD value for NRAS to KD value for KRAS) ([3]; KD ratio class): B (a compound having 3 or more and less than 10 is denoted as B)

Now from value to compound, other results behind:

Row | Kd [2, 4] [nM] | Compound | HRAS/KRAS (ratio of KD value for HRAS to KD value for KRAS) [1] | NRAS/KRAS (ratio of KD value for NRAS to KD value for KRAS) [3] | other results
5 | 0.32 | CC[C@H](C)[C@@H]1NC(=O)[C@H](CC(C)C)N(C)C(=O)C[C@@H](C(=O)N2CCOCC2)N(C)C(=O)[C@H](C2CCCC2)N(C)C(=O)C2(CCCC2)NC(=O)[C@@H]2CCCN2C(=O)[C@H](CCc2ccc(C(F)(F)F)c(Cl)c2)NC(=O)CN(C)C(=O)[C@H](Cc2ccc(C(F)(F)F)cc2)N(CC2CC2)C(=O)CN(C)C(=O)CN(C)C1=O [PP0122] ([NMeL]I[Sar][Sar][X27][Sar][hPhe(3-Cl-4-CF3)]P[Ac5c][NMeGly(cPent)][NMeD]-Morpholide; lactam N-11) | C (A compound having a KD ratio of 0.1 or more and less than 3 is denoted as C) | C (A compound having a KD ratio of 0.1 or more and less than 3 is denoted as C) | –
6 | 0.19 | CC[C@H](C)[C@@H]1NC(=O)[C@H](CC(C)C)N(C)C(=O)C[C@@H](C(=O)N2CCOCC2)N(C)C(=O)[C@H](C2CCCC2)N(C)C(=O)C2(CCCC2)NC(=O)[C@@H]2CCCN2C(=O)[C@H](CCc2ccc(C(F)(F)F)c(Cl)c2)NC(=O)CN(C)C(=O)[C@H](Cc2ccc(C(F)(F)F)cc2)N(CCC(F)(F)F)C(=O)[C@@H]2CCN2C(=O)[C@H](C)N(C)C1=O [PP0117] ([NMeL]I[NMeA][Aze][X25][Sar][hPhe(3-Cl-4-CF3)]P[Ac5c][NMeGly(cPent)][NMeD]-Morpholide; lactam N-11) | B (a compound having 3 or more and less than 10 is denoted as B) | B (a compound having 3 or more and less than 10 is denoted as B) | –
7 | 0.055 | CCO[C@@H]1C[C@H]2C(=O)NC3(CCC3)C(=O)N(C)[C@@H](C3CCCC3)C(=O)N(C)[C@H](C(=O)N3CCOCC3)CC(=O)N(C)[C@@H](CC3CCCCC3)C(=O)N[C@@H]([C@@H](C)CC)C(=O)N(C)CC(=O)N(C)[C@H]3CCCCN(C3=O)[C@@H](Cc3ccc(C(F)(F)F)cc3)C(=O)N(C)CC(=O)N[C@@H](CCc3cc(F)c(C(F)(F)F)c(F)c3)C(=O)N2C1 [PP0716] | – | – | HRAS/KRAS (ratio of KD value with respect to HRAS to KD value with respect to KRAS) [1]: B (a compound having 3 or more and less than 10 is denoted as B); NRAS/KRAS (ratio of KD value with respect to NRAS to KD value with respect to KRAS) [3]: C (A compound having a KD ratio of 0.1 or more and less than 3 is denoted as C)
